Laboratory results taken from the supplement of paper PMC10307832.

Columns and labels:
Test in all cases: relative viability (nuclei count vs DMSO), 5 days (fraction); higher = more cells survive
[1] = compound: C1CNCCC1C2=CC(=NN2)C3=CC=NC=C3 + O=C(c1cc(Cc2n[nH]c(=O)c3ccccc23)ccc1F)N1CCN(C(=O)C2CC2)CC1 [Olaparib] (partner 8 µM)
Method in brief: (§1)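 Five library-drug doses in √10 steps were combined with a fixed anchor-drug dose, or a single drug was given alone, by pin tool to lung cancer cell lines in 1536-well plates the day after seeding. Nuclei were stained and counted after 5 days. Relative viability is the nuclei count in treated wells over that in vehicle wells, taken as the median of duplicate plates.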

[2] = compound: C1CNCCC1C2=CC(=NN2)C3=CC=NC=C3 + Cc1nc(NC(=O)N2CCC[C@H]2C(N)=O)sc1-c1ccnc(C(C)(C)C(F)(F)F)c1 [Alpelisib] (partner 2 µM)
Method in brief: as §1

[3] = compound: C1CNCCC1C2=CC(=NN2)C3=CC=NC=C3 + C[C@@H](Oc1cc(-c2cnn(C3CCNCC3)c2)cnc1N)c1c(Cl)ccc(F)c1Cl [Crizotinib] (partner 1 µM)
Method in brief: as §1

[4] = compound: C1CNCCC1C2=CC(=NN2)C3=CC=NC=C3 + C[C@]1(O)C[C@@H](c2nc(-c3ccc4ccc(-c5ccccc5)nc4c3)c3c(N)nccn32)C1 [Linsitinib] (partner 1 µM)
Method in brief: as §1

Row | Cell Line | relative viability ([1]; first compound 0.08 µM) | relative viability ([1]; first compound 0.8 µM) | relative viability ([1]; first compound 2.53 µM) | relative viability ([1]; first compound 8 µM) | relative viability ([2]; first compound 0.08 µM) | relative viability ([2]; first compound 0.8 µM) | relative viability ([2]; first compound 2.53 µM) | relative viability ([2]; first compound 8 µM) | relative viability ([3]; first compound 0.08 µM) | relative viability ([3]; first compound 0.8 µM) | relative viability ([3]; first compound 2.53 µM) | relative viability ([3]; first compound 8 µM) | relative viability ([4]; first compound 0.08 µM) | relative viability ([4]; first compound 0.8 µM) | relative viability ([4]; first compound 2.53 µM) | relative viability ([4]; first compound 8 µM)
1 | NCI-H460 | 0.303 | 0.505 | 0.451 | 0.412 | 0.381 | 0.343 | 0.593 | 0.62 | 0.369 | 1.02 | 1.02 | 0.996 | 0.421 | 1.22 | 0.818 | 0.849
2 | NCI-H520 | 0.332 | 0.356 | 0.381 | 0.266 | 0.88 | 0.666 | 0.831 | 0.658 | 0.742 | 0.921 | 0.727 | 0.736 | 0.883 | 1.04 | 0.867 | 0.912
3 | NCI-H596 | 0.733 | 0.709 | 0.687 | 0.72 | 0.508 | 0.488 | 0.526 | 0.532 | 0.984 | 1.15 | 1.04 | 0.991 | 0.894 | 1.12 | 1.03 | 1.03
4 | NCI-H647 | 0.556 | 0.661 | 0.511 | 0.552 | 0.969 | 1.12 | 1.31 | 1.22 | 1.05 | 1.08 | 1.01 | 1.06 | 1.28 | 1.45 | 1.38 | 1.09
5 | NCI-H650 | 0.4 | 0.424 | 0.376 | 0.405 | 0.86 | 1.08 | 1.22 | 0.997 | 0.681 | 0.802 | 0.929 | 0.489 | 0.751 | 0.727 | 1.06 | 0.75
6 | NCI-H661 | 0.705 | 0.757 | 0.75 | 0.733 | 0.879 | 0.647 | 0.799 | 0.733 | 1.15 | 0.96 | 1.05 | 0.902 | 0.534 | 0.524 | 0.528 | 0.584
7 | NCI-H727 | 0.76 | 0.798 | 0.669 | 0.69 | 0.478 | 0.552 | 0.542 | 0.524 | 0.718 | 1.1 | 1.05 | 0.776 | 0.362 | 0.338 | 0.294 | 0.21
8 | NCI-H838 | 0.708 | 0.795 | 0.815 | 0.799 | 0.984 | 1.11 | 1.03 | 0.996 | 0.844 | 0.924 | 0.954 | 0.796 | 0.969 | 1.05 | 1.07 | 0.983
9 | NCI-H1299 | 1.03 | 0.97 | 0.946 | 0.91 | 1.13 | 1.22 | 1.04 | 1.06 | 0.991 | 1 | 0.99 | 0.9 | 0.987 | 1.14 | 1.05 | 0.924
10 | NCI-H1355 | 0.704 | 0.727 | 0.792 | 0.792 | 0.826 | 0.706 | 0.804 | 0.822 | 1.02 | 1.03 | 1.12 | 1.13 | 0.868 | 0.71 | 0.891 | 0.797
11 | NCI-H1437 | 0.636 | 0.644 | 0.679 | 0.642 | 0.941 | 0.979 | 0.999 | 0.928 | 0.866 | 0.967 | 0.929 | 0.883 | 0.986 | 1.03 | 1.16 | 1.05
12 | NCI-H1651 | 0.174 | 0.202 | 0.191 | 0.176 | 0.767 | 1.09 | 0.904 | 1 | 0.825 | 0.832 | 0.872 | 0.854 | 0.923 | 0.977 | 0.966 | 1.14
13 | NCI-H1666 | 0.704 | 0.768 | 0.806 | 0.745 | 0.907 | 0.849 | 1.18 | 1.13 | 0.762 | 0.935 | 0.989 | 0.902 | 0.758 | 0.748 | 0.862 | 0.814
14 | NCI-H1703 | 0.375 | 0.72 | 0.443 | 0.431 | 0.345 | 0.268 | 0.347 | 0.278 | 0.823 | 0.813 | 0.824 | 1.01 | 0.79 | 0.858 | 0.928 | 0.852
15 | NCI-H1734 | 0.581 | 0.639 | 0.598 | 0.635 | 0.684 | 0.618 | 0.768 | 0.706 | 0.663 | 0.687 | 0.653 | 0.654 | 0.845 | 0.885 | 0.908 | 0.811
16 | NCI-H1755 | 0.974 | 0.922 | 0.857 | 0.852 | 0.938 | 0.837 | 0.906 | 0.863 | 0.967 | 0.836 | 0.887 | 0.776 | 1.01 | 0.966 | 0.969 | 0.916
17 | NCI-H1792 | 0.504 | 0.385 | 0.471 | 0.353 | 0.637 | 0.519 | 0.773 | 0.618 | 0.987 | 0.983 | 1.06 | 0.959 | 0.521 | 0.514 | 0.566 | 0.534
18 | NCI-H1915 | 0.265 | 0.272 | 0.269 | 0.25 | 1 | 1.06 | 1.07 | 1.09 | 0.88 | 0.906 | 0.855 | 0.909 | 1.05 | 1.14 | 1.1 | 1.11
19 | NCI-H1944 | 0.403 | 0.384 | 0.389 | 0.384 | 0.85 | 0.601 | 0.83 | 0.938 | 1.06 | 1.08 | 1.1 | 1.08 | 1.14 | 1.08 | 1.25 | 1.1
20 | NCI-H1975 | 0.87 | 0.894 | 0.936 | 0.778 | 0.667 | 0.622 | 0.58 | 0.629 | 0.988 | 1.05 | 0.963 | 0.889 | 0.952 | 1.14 | 0.917 | 0.97
